In patent publication US20250152647A1, “FORMULATIONS AND METHODS FOR SKIN CARE” (AMILYFE, LLC, priority 2022, published 2025):

Assay: Preliminary screens of amino acids
Experimental: In addition to the amino acid combinations described above, several other combinations are tested that include, e.g., Trp and/or Arg to determine if inclusion of these amino acids confers additional dermatological benefits. […] At the outset, the following combinations of amino acids are tested: Ala, Gln, Gly, Ser (combo #1); Ala, Gln, Gly, Ser, Val, Ile (combo #2); Ala, Gln, Gly, Ser, Val; Ala, Gln, Gly, Ser, Ile; Ala, Gln, Gly, Ser, Ile, Val, Trp; Ala, Gln, Gly, Ser, Ile, Val, Arg; and Ala, Gln, Gly, Ser, Ile, Val, Trp, Arg.

Row | Structure (SMILES) | effect in preliminary screens
1 | N=C(N)NCCC[C@H](N)C(=O)O [Arg, arginine] | positive effects
2 | N[C@@H](Cc1c[nH]c2ccccc12)C(=O)O [Trp, tryptophan] | positive effects
